According to BigSolDB 2.1:

O=c1cc(-c2ccc(O)cc2)oc2cc(O)cc(O)c12
solubility (mole fraction)
Conditions | 298.2 K | 303.2 K | 308.2 K | 313.2 K | 318.2 K
in DMSO | 0.376 | 0.384 | 0.395 | 0.407 | 0.418
in ethanol | 0.00025 | 0.000314 | 0.000358 | 0.000426 | 0.000486
in ethyl acetate | 0.000241 | 0.000284 | 0.000326 | 0.000394 | 0.000446
in ethylene glycol | 0.00522 | 0.00573 | 0.00644 | 0.00732 | 0.00822
in isopropanol | 0.00038 | 0.000427 | 0.000485 | 0.000551 | 0.000629
in methanol | 0.000142 | 0.000172 | 0.000207 | 0.000249 | 0.000296
in n-butanol | 0.000562 | 0.00063 | 0.000713 | 0.000808 | 0.000918
in propylene glycol | 0.0101 | 0.0112 | 0.0124 | 0.0137 | 0.015
in sec-butanol | 0.000534 | 0.000603 | 0.000685 | 0.000781 | 0.00089
in transcutol | 0.334 | 0.345 | 0.357 | 0.371 | 0.383
in water | 1.04e-06 | 1.33e-06 | 1.73e-06 | 2.27e-06 | 3.08e-06

Conditions | solubility (mole fraction)
in PEG-400, 298.2 K | 0.397
in PEG-400, 303.2 K | 0.405
in PEG-400, 308.2 K | 0.413
in PEG-400, 313.2 K | 0.42
in PEG-400, 318.2 K | 0.427
